The record followed here is patent US20100111838A1, “BRAIN-LOCALIZING POLYPEPTIDES COMPRISING A MULTIVALENT BINDING MOIETY AND IMPROVED METABOLIC STABILITY” (Proteus Sciences Co., Ltd, priority 2007, published 2010).

Molecules are shown by their SMILES. Where a SMILES comes first, the peptide text is derived from it. The star is where a group is joined. 5FAM = O=C1OC2(c3ccc(O)cc3Oc3cc(O)ccc32)c2ccc(C(=O)*)cc21

This series can be described thus: In vitro metabolism test of fluorescein-labeled peptides in liver extract solution (HPLC). The class given is in vitro ADME. The following applies: liver extract solution (supernatant of liver homogenate), mouse liver extract solution, 37° C., read-out: residual ratio of unchanged peptide in liver extract solution. Here is the method:
To compare the degree of improved stability observed in [C]K004K, an experiment system that uses a fluorescent pigment as a tracer instead of an isotope labeling for in vitro evaluation using a mouse liver homogenate was produced.
Add two parts of Hanks' solution to one part of mouse liver, and homogenize ↓ Centrifuge and collect supernatant ↓ Add five parts of Hanks' solution (liver extract solution) ↓ Add 5 μL of peptide to 245 μL of liver extract solution ↓
↓ Take 50 μL of sample 0, 5, 30, 60, and 120 minutes after incubation ↓ Add 200 μL, of 70% ethanol (pre-cooled at −30° C.) and then vortex ↓ Add 500 μL of chloroform (pre-cooled at −30° C.) and then vigorously vortex ↓ Centrifuge and collect supernatant ↓ Add an equivalent amount of DMF and then vortex ↓ Centrifuge and collect supernatant ↓ HPLC analysis using Co-sense
[C](Flu)-C004C: A peptide cyclized by adding C to both ends of the 004 sequence and forming a disulfide bond between them was labeled with fluorescein at its N-terminus. [C](Flu)-K004C: A peptide cyclized by adding K to the N terminus and C to the C terminus of the 004 sequence and forming a peptide bond between the N- and C-termini was labeled with fluorescein at its N terminus. [C](Flu)-K004K: A peptide cyclized by adding K to both ends of the 004 sequence and forming a peptide bond between the N- and C-termini was labeled with fluorescein at its N terminus. […]

Consider `CC(C)C[C@@H]1NC(=O)[C@H](Cc2c[nH]cn2)NC(=O)[C@H](CCCNC(=N)N)NC(=O)[C@H](C(C)C)NC(=O)[C@H](C(C)C)NC(=O)[C@H](CCCCNC(=O)c2ccc3c(c2)C(=O)OC32c3ccc(O)cc3Oc3cc(O)ccc32)NC(=O)[C@H](CS)NC(=O)[C@H](CCC(N)=O)NC(=O)[C@H](CCC(N)=O)NC1=O` [[C](Flu)-K004C, reference compound] (cyclo(K(5FAM)VVRHLQQC)), for which, for the setting “five minutes”, the remaining at 5 min was 40%.

As for `CC(C)C[C@@H]1NC(=O)[C@H](Cc2c[nH]cn2)NC(=O)[C@H](CCCNC(=N)N)NC(=O)[C@H](C(C)C)NC(=O)[C@H](C(C)C)NC(=O)[C@H](CCCCNC(=O)c2ccc3c(c2)C(=O)OC32c3ccc(O)cc3Oc3cc(O)ccc32)NC(=O)[C@H](CCCCN)NC(=O)[C@H](CCC(N)=O)NC(=O)[C@H](CCC(N)=O)NC1=O` [[C](Flu)-K004K] (cyclo(K(5FAM)VVRHLQQK)), the remaining at 1 h (60-minute incubation) was about 50%.
